Where a SMILES comes first, the peptide text is derived from it.
Experiments:
GFP-Cdc14 [1] = molecular target: GFP-Cdc14 (Saccharomyces cerevisiae, UniProt Q00684); test: biochemical; type: binding
Cdc14 = Cdc14 (Saccharomyces cerevisiae, UniProt Q00684); type: biochemical; details: for Dephosphorylation of pTP phosphopeptide by Cdc14: 1 µM Cdc14 (Supplementary Fig. 9d)
Cdc14 with Net1^1-600 = type: biochemical, Saccharomyces cerevisiae; details: 200 nM Net1^1-600; two independent experiments (Fig. 4c)
His6-Net1^1-600 = molecular target: T1, His6-Net1^1-600 (S. cerevisiae, UniProt P47035 1-600); test: pull-down
T1 sequence (looked up): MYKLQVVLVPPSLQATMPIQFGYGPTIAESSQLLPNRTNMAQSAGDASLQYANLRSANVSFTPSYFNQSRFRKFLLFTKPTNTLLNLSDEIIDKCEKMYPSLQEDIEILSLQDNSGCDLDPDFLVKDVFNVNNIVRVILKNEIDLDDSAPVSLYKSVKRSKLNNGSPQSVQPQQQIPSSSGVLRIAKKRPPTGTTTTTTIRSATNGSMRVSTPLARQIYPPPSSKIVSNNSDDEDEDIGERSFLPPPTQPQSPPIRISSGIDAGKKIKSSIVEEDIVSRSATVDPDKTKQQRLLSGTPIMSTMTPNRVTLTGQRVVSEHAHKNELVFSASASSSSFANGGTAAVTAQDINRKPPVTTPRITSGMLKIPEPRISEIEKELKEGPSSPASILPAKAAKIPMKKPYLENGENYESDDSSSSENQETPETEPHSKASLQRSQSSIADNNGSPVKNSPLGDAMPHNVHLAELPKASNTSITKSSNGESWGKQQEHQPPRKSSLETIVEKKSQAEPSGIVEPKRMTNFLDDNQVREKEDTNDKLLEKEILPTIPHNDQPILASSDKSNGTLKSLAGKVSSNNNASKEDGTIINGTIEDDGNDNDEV

GFP-Cdc14 [2] = molecular target: T2, GFP-Cdc14 (S. cerevisiae, UniProt Q00684 1-551); test: MST
T2 sequence (looked up): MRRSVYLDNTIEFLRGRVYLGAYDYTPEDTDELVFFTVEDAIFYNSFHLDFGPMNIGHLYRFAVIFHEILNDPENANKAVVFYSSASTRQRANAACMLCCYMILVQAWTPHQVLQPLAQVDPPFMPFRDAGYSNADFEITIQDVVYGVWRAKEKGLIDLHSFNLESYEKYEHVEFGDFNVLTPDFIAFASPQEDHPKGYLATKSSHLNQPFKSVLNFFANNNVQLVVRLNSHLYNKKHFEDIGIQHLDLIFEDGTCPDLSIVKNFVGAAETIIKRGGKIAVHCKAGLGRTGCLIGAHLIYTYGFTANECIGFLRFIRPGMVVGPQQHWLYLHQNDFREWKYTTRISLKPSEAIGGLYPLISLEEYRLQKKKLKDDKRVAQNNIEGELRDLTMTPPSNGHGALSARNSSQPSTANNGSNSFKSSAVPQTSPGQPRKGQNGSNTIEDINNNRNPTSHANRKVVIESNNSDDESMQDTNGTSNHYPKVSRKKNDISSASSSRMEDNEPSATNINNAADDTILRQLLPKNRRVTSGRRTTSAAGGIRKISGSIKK

Molecule: CC(C)C[C@H](NC(=O)[C@H](CC(C)C)NC(=O)[C@@H]1CCCN1C(=O)[C@H](C)NC(=O)[C@H](CC(N)=O)NC(=O)[C@H](CCCCN)NC(=O)[C@H](Cc1ccccc1)NC(=O)[C@H](CO)NC(=O)[C@H](CCCCN)NC(=O)[C@@H](NC(=O)[C@@H](NC(=O)[C@H](CO)NC(=O)[C@@H]1CCCN1)[C@@H](C)O)[C@@H](C)O)C(=O)N[C@@H](C)C(=O)N1CCC[C@H]1C(=O)N1CCC[C@H]1C(=O)O [Sic1 peptide] (H-PSTTKSFKNAPLLAPP-OH)
- Kd (GFP-Cdc14 [1]): 32.2 µM

Molecule: FTDVAAGNYPATPPPH-TSPLGpTPLAAFNGLTSPQRSPFPKSSVK [AxG…pTP control peptide]
- Dephosphorylation of pTP phosphopeptide by Cdc14 (Cdc14): almost undetectable

Molecule: FTDVPALNYPATPPPH-TSPLGpSPLAAFNGLTSPQRSPFPKSSVK [PxL…pSPxAA peptide]
- Behaviour at higher substrate concentrations (Cdc14; pSPxAA phosphopeptide, 100 nM Cdc14, above 50 μM (Fig. 6a)): apparent substrate inhibition

Molecule: FTDVPALNYPATPPPHTSPLGpTPLAAFNGLTSPQRSPFP-KSSVK [PxL…pTP peptide]
- Dephosphorylation of pTP phosphopeptide by Cdc14 (Cdc14): substantially enhanced

Molecule: YVPAPAPTTPLNFDHP [scrambled peptide]
- Effect of peptide on inhibition of Cdc14 p-NPP hydrolysis by Net1 (Cdc14 with Net1^1-600): observed to a much lesser extent

B1: GST-Cdc14 (enzyme, S. cerevisiae, UniProt Q00684 1-551, looked up)
chain: T2 sequence (looked up)
- binding result (His6-Net1^1-600): binds

Molecule: Ac-KGKLILSSVPPLPYDE-NH2 [Kar9-derived PxL motif peptide]
- Kd (GFP-Cdc14 [2]): 6 µM

Molecule: FTDVPALNYPATPPPH [Cbk1-derived PxL motif peptide (16-mer)]
- Kd (GFP-Cdc14 [2]): 6.1 µM

— paper PMC6292506 (Nature structural & molecular biology, 2018)
